Assay results taken from PubChem BioAssay AID1963854 (Molecular Pharmacology Branch, DTP, NCI, 2024).

System: 186277-243-T-J2-PDC complex spheroid viability
Test: Anticancer human tumor 186277-243-T-J2-PDC patient-derived colon adenocarcinoma cell line growth inhibition [POLQ]
Conditions: for IC50: curve of first compound; for viability, T/C: stronger effect = lower value; active = viability on the fitted dose curve at most 10% of control; inactive = the rest
Outline: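 Growth inhibition in 3D: complex spheroids (tumor PDC, HUVEC, MSC) treated with POLQ inhibitor combinations; where Cmax unknown, highest tested concentration 10 microM, except SN-38 at 1 microM.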

[1] = second compound 0.0316 µM, first compound 0.0316 µM
[2] = second compound 0.0316 µM, first compound 0.1 µM
[3] = second compound 0.0316 µM, first compound 0.316 µM
[4] = second compound 0.0316 µM, first compound 1 µM
[5] = second compound 0.0316 µM, first compound 3.16 µM
[6] = second compound 0.0316 µM, first compound 10 µM
[7] = second compound 0.1 µM, first compound 0.0316 µM
[8] = second compound 0.1 µM, first compound 0.1 µM
[9] = second compound 0.1 µM, first compound 0.316 µM
[10] = second compound 0.1 µM, first compound 1 µM
[11] = second compound 0.1 µM, first compound 3.16 µM
[12] = second compound 0.1 µM, first compound 10 µM
[13] = second compound 0.316 µM, first compound 0.0316 µM
[14] = second compound 0.316 µM, first compound 0.1 µM
[15] = second compound 0.316 µM, first compound 0.316 µM
[16] = second compound 0.316 µM, first compound 1 µM
[17] = second compound 0.316 µM, first compound 3.16 µM
[18] = second compound 0.316 µM, first compound 10 µM
[19] = second compound 1 µM, first compound 0.0316 µM
[20] = second compound 1 µM, first compound 0.1 µM
[21] = second compound 1 µM, first compound 0.316 µM
[22] = second compound 1 µM, first compound 1 µM
[23] = second compound 1 µM, first compound 3.16 µM
[24] = second compound 1 µM, first compound 10 µM
[25] = second compound 3.16 µM, first compound 0.0316 µM
[26] = second compound 3.16 µM, first compound 0.1 µM
[27] = second compound 3.16 µM, first compound 0.316 µM
[28] = second compound 3.16 µM, first compound 1 µM
[29] = second compound 3.16 µM, first compound 3.16 µM
[30] = second compound 3.16 µM, first compound 10 µM
[31] = second compound 10 µM, first compound 0.0316 µM
[32] = second compound 10 µM, first compound 0.1 µM
[33] = second compound 10 µM, first compound 0.316 µM
[34] = second compound 10 µM, first compound 1 µM
[35] = second compound 10 µM, first compound 3.16 µM
[36] = second compound 10 µM, first compound 10 µM
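Also: spheroids exposed to compounds for seven days.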
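For viability, T/C in this document: 100% = DMSO vehicle control viability.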

CCCS(=O)(=O)Nc1ccc(F)c(C(=O)c2c[nH]c3ncc(-c4ccc(Cl)cc4)cc23)c1F + Nc1ccc(C#CCN(C(=O)Cc2ncc(C(F)(F)F)cc2C(F)(F)F)c2ccc(F)cc2)nn1
> 10 µM: IC50 (second compound 0.0316 µM) | IC50 (second compound 0.1 µM) | IC50 (second compound 0.316 µM) | IC50 (second compound 1 µM) | IC50 (second compound 3.16 µM)
9.97 µM: IC50 (second compound 10 µM)
inactive: viability, T/C [1] 89.6% | viability, T/C [2] 100% | viability, T/C [3] 88.9% | viability, T/C [4] 79.8% | viability, T/C [5] 113% | viability, T/C [6] 66.3% | viability, T/C [7] 91.5% | viability, T/C [8] 87.7% | viability, T/C [9] 86.8% | viability, T/C [10] 82.9% | viability, T/C [11] 91.5% | viability, T/C [12] 60.9% | viability, T/C [13] 89.7% | viability, T/C [14] 90.5% | viability, T/C [15] 89% | viability, T/C [16] 94.3% | viability, T/C [17] 85.8% | viability, T/C [18] 57.8% | viability, T/C [19] 100% | viability, T/C [20] 91.2% | viability, T/C [21] 109% | viability, T/C [22] 94.4% | viability, T/C [23] 87.8% | viability, T/C [24] 62.8% | viability, T/C [25] 120% | viability, T/C [26] 89.5% | viability, T/C [27] 85% | viability, T/C [28] 93.4% | viability, T/C [29] 88% | viability, T/C [30] 63.6% | viability, T/C [31] 108% | viability, T/C [32] 97.7% | viability, T/C [33] 85.7% | viability, T/C [34] 95.9% | viability, T/C [35] 85.1% | viability, T/C [36] 48.8%

CCc1cc2c(N3CCc4c(cc(Cn5ccnc5)cc4-c4cn(C)nc4C(F)(F)F)C3=O)ccnc2c(OC)n1 + COC1C(OC(N)=O)C(O)C(Oc2ccc3c(O)c(NC(=O)c4ccc(O)c(CC=C(C)C)c4)c(=O)oc3c2C)OC1(C)C
inactive: viability, T/C [1] 94.6% | viability, T/C [2] 94% | viability, T/C [3] 116% | viability, T/C [4] 87.8% | viability, T/C [5] 92.6% | viability, T/C [6] 74.9% | viability, T/C [7] 97.5% | viability, T/C [8] 95.2% | viability, T/C [9] 111% | viability, T/C [10] 104% | viability, T/C [11] 86% | viability, T/C [12] 74.3% | viability, T/C [13] 83.3% | viability, T/C [14] 105% | viability, T/C [15] 98% | viability, T/C [16] 87.8% | viability, T/C [17] 89.7% | viability, T/C [18] 73.3% | viability, T/C [19] 94.1% | viability, T/C [20] 103% | viability, T/C [21] 86.5% | viability, T/C [22] 106% | viability, T/C [23] 107% | viability, T/C [24] 74.8% | viability, T/C [25] 107% | viability, T/C [26] 100% | viability, T/C [27] 99.1% | viability, T/C [28] 93.1% | viability, T/C [29] 89.1% | viability, T/C [30] 75.5% | viability, T/C [31] 101% | viability, T/C [32] 99.7% | viability, T/C [33] 107% | viability, T/C [34] 101% | viability, T/C [35] 109% | viability, T/C [36] 83.6%
> 10 µM: IC50 (second compound 0.0316 µM) | IC50 (second compound 0.1 µM) | IC50 (second compound 0.316 µM) | IC50 (second compound 1 µM) | IC50 (second compound 3.16 µM) | IC50 (second compound 10 µM)
